Assay results as given in BindingDB's records for patent US20240335420 (Eurofarma, 2024).

Experiments:
[1] = target: Sodium channel protein type 9 subunit alpha (Homo sapiens, UniProt Q15858); assay: In Vitro Assay (Protocol 1)
Method: (§1) Compounds of Formula (I), were diluted in eight concentrations in the extracellular solution composed of physiological saline, buffered with HEPES (mM): NaCl, 137; KCl, 4; CaCl2, 3.8; MgCl2, 1; HEPES, 10; Glucose, 10; pH 7.4. The […], 50; CsF, 90; MgCl2, 5; EGTA, 5; HEPES, 10; pH 7.2. The duration of exposure of each compound with the cells expressing Nav 1.7 or Nav 1.8 was at least five minutes and the assays were performed at room temperature.The measurements of the sodium currents of Nav 1.8 and Nav 1.7 were obtained using the voltage protocols described below:Protocol 1: A holding voltage of −90 mV was established followed by a voltage phase of 200 ms to −120 mV, followed by a voltage step of 10 mV for 1 second for Nav 1.8 or 0 mV for Nav 1.7, followed by a step of −100 mV for 20 ms, followed by a step of 20 ms for 10 mV for Nav 1.8 or 0 mV for Nav 1.7 (TP1A) before returning to the holding voltage of −90 mV.Protocol 2: A holding voltage of −100 mV was established followed by an inactivation voltage step at −40 mV for 8 seconds, followed by a −100 mV step for […], followed by a 20 ms step for 10 mV for Nav 1.8 or 0 mV for Nav 1.7 (TP1A) before returning to the holding voltage of −100 mV.Protocols were repeated at a frequency of 0.1 Hz and current amplitude was quantified over the TP1A phase log. The variation in the peak amplitude of the current was evaluated according to the Formula described below, after exposure of the cells expressing the channels, at each concentration of the different compounds:%Block=(1-(ITP1A,molecule/ITP1A,basal)×100%,where |TP1A, basal, and |TP1A, molecule represent the entry peaks of sodium currents into TP1A prior to exposure to the compound and in the presence of the compound, respectively.

[2] = target: Sodium channel protein type 10 subunit alpha (Homo sapiens, UniProt Q9Y5Y9); assay: In Vitro Assay (Protocol 1)
Method: as §1

Chain of Sodium channel protein type 10 subunit alpha (Q9Y5Y9 whole entry): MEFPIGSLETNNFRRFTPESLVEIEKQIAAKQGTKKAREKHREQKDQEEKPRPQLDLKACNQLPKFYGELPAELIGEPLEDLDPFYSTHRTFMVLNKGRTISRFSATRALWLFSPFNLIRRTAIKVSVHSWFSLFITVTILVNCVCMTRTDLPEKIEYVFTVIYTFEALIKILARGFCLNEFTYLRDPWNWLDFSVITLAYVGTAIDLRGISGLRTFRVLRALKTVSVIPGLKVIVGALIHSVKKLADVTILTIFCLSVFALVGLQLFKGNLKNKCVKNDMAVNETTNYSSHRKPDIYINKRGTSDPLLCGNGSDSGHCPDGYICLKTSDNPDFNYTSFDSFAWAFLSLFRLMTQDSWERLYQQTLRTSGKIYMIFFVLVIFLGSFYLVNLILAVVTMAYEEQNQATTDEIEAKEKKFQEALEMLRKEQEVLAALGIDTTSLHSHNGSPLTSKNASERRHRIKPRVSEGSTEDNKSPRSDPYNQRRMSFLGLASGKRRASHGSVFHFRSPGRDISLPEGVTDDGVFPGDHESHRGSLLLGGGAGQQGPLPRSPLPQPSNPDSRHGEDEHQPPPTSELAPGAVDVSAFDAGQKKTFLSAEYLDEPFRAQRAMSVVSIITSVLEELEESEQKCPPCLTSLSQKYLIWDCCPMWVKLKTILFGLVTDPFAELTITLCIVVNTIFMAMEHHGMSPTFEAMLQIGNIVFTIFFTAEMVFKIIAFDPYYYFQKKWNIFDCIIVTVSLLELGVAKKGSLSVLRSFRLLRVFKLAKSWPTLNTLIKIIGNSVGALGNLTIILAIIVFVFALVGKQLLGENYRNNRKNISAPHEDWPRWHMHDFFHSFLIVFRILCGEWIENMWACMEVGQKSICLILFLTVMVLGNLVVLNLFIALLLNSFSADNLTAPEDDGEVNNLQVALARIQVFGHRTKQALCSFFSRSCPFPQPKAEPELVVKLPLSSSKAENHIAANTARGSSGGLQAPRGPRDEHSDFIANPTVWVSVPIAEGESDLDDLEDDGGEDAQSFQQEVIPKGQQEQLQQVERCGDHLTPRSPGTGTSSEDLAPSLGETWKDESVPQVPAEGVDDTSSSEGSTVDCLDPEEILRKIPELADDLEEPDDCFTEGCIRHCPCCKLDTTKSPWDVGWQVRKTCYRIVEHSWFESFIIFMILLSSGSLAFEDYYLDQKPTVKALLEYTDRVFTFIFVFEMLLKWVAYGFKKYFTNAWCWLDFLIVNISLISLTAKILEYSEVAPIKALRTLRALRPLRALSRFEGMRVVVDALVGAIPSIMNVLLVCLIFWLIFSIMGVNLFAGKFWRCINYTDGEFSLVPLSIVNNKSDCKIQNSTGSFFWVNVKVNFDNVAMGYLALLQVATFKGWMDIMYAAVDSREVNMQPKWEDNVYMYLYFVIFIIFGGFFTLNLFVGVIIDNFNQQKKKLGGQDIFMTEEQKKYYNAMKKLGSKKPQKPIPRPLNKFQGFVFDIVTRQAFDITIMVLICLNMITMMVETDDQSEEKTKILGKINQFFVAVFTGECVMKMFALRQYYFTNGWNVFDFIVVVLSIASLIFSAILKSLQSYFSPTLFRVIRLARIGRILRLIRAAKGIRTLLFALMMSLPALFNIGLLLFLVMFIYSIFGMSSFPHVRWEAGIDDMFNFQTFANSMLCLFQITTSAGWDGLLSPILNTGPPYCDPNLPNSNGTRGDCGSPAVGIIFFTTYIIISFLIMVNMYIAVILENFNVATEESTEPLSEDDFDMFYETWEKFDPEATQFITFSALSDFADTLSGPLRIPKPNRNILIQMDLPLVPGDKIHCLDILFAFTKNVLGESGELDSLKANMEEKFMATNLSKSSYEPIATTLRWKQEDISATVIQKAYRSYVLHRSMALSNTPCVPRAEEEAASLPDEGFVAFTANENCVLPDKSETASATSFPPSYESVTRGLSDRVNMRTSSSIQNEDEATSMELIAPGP
Chain of Sodium channel protein type 9 subunit alpha (Q15858 whole entry): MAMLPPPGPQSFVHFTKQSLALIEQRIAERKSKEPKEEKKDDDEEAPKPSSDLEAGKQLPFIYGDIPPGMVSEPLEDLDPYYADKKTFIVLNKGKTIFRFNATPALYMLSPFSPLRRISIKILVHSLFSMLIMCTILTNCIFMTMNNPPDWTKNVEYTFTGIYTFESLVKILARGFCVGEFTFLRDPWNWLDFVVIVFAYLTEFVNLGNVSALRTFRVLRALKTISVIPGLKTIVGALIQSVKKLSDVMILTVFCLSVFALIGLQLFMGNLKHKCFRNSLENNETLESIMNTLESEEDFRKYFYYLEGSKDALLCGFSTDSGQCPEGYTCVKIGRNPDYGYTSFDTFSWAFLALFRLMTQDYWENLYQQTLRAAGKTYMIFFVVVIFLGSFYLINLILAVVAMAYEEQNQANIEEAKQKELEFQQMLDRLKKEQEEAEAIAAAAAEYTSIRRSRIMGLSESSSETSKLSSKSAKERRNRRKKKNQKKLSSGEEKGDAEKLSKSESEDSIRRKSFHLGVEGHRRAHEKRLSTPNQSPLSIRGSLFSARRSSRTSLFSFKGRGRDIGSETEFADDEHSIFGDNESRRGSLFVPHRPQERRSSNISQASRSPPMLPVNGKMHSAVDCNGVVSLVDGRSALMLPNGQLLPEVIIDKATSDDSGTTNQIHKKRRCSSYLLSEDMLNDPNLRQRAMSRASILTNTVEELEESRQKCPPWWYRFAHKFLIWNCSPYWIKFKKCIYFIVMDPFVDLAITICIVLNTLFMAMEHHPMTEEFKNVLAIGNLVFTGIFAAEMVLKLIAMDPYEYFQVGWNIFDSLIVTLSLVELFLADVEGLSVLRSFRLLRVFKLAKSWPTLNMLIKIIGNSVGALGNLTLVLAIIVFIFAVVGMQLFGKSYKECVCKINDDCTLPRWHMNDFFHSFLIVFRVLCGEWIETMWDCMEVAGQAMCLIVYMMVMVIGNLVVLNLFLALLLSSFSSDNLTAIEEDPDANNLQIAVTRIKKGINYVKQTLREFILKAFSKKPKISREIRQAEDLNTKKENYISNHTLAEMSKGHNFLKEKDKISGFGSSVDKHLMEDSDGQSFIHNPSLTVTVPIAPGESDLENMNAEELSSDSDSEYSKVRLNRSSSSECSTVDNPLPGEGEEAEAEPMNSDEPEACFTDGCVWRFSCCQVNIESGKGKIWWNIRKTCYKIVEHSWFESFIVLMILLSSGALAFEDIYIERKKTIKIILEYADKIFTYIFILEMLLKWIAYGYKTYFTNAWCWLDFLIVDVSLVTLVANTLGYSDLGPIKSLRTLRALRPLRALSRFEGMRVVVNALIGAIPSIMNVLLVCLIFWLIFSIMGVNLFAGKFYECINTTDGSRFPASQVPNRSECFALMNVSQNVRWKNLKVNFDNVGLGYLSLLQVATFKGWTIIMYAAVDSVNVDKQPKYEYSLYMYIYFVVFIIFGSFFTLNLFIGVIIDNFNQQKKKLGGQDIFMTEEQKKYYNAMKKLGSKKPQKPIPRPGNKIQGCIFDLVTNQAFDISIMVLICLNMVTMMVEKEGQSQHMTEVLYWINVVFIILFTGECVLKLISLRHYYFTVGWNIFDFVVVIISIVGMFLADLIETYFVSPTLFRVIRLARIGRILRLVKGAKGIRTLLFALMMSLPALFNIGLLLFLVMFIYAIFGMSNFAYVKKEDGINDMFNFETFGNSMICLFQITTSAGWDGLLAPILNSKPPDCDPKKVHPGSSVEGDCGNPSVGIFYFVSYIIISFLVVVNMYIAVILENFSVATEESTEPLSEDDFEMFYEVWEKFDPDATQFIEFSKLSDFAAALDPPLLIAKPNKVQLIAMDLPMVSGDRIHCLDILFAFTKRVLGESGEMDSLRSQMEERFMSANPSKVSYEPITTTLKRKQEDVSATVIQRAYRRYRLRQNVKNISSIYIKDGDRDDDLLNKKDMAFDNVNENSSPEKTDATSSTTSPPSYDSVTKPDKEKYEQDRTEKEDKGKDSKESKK

SMILES | IC50 [1] | IC50 [2]
O=C(N/N=C/c1cccs1)c1ccc(-c2ccc(Cl)cc2)o1 [US20240335420, Compound 1] | > 30000 nM | > 30000 nM
COc1cc(/C=N/NC(=O)c2cccc(-c3ccc(Cl)cc3)n2)cc(OC)c1 [US20240335420, Compound 10] | 362 nM | 1370 nM
